Test results from ChEMBL document CHEMBL5113540, “Fragment-Based Discovery of a Novel, Brain Penetrant, Orally Active HDAC2 Inhibitor” (ACS Med Chem Lett, 2022).
Active and inactive are the calls of the source. No cut-off for these calls is given here.

Key:
Histone deacetylase 2 [1] = biological target: T1, Histone deacetylase 2 (Homo sapiens, UniProt Q92769); test: Inhibition of full length recombinant C-terminal FLAG-tagged human HDAC2 expressed in baculovirus-infected Sf9 cells at 1 mM measured for 2 hrs by fluorescence-based assay relative to control
Histone deacetylase 2 [2] = biological target: T1, Histone deacetylase 2; test: Inhibition of full length recombinant C-terminal FLAG-tagged human HDAC2 expressed in baculovirus-infected Sf9 cells measured for 2 hrs by fluorescence-based assay
SK-N-SH [3] = test: Inhibition of […] in human SK-N-SH cells assessed as increase in histone H3K9 acetylation level at 3 to 12 uM measured after 48 hrs by immunochemical detection based analysis; type: cell-based; conditions: dose 3-12 µM
SK-N-SH [4] = test: Inhibition of […] in human SK-N-SH cells assessed as increase in histone H4K12 acetylation level at 3 to 12 uM measured after 48 hrs by immunochemical detection based analysis; type: cell-based; conditions: dose 3-12 µM
[5] = Cmax in C57BL/6 mouse plasma at 30 mg/kg, po measured upto 24 hrs by LC-ESI-MS/MS analysis; type: ADME, organism-based; parameters: time < 24 hrs, dose 30 mg/kg, route po
[6] = Cmax in C57BL/6 mouse plasma at 100 mg/kg, po measured upto 24 hrs by LC-ESI-MS/MS analysis; type: ADME, organism-based; parameters: time < 24 hrs, dose 100 mg/kg, route po
[7] = Cmax in C57BL/6 mouse brain at 30 mg/kg, po measured upto 24 hrs by LC-ESI-MS/MS analysis; type: ADME, organism-based; parameters: dose 30 mg/kg, time < 24 hrs, route po
[8] = Cmax in C57BL/6 mouse brain at 100 mg/kg, po measured upto 6 hrs by LC-ESI-MS/MS analysis; type: ADME, organism-based; parameters: dose 100 mg/kg, time < 6 hrs, route po
[9] = AUC (0 to infinity) in C57BL/6 mouse plasma at 30 mg/kg, po measured upto 24 hrs by LC-ESI-MS/MS analysis; type: ADME, organism-based; parameters: time < 24 hrs, dose 30 mg/kg, route po
[10] = AUC (0 to infinity) in C57BL/6 mouse plasma at 100 mg/kg, po measured upto 24 hrs by LC-ESI-MS/MS analysis; type: ADME, organism-based; parameters: time < 24 hrs, dose 100 mg/kg, route po
[11] = AUC (0 to infinity) in C57BL/6 mouse brain at 30 mg/kg, po measured upto 24 hrs by LC-ESI-MS/MS analysis; type: ADME, organism-based; parameters: dose 30 mg/kg, time < 24 hrs, route po; conditions: in vivo
[12] = AUC (0 to infinity) in C57BL/6 mouse brain at 100 mg/kg, po measured upto 6 hrs by LC-ESI-MS/MS analysis; type: ADME, organism-based; parameters: dose 100 mg/kg, time < 6 hrs, route po; conditions: in vivo
[13] = Half life in C57BL/6 mouse plasma at 30 mg/kg, po measured upto 24 hrs by LC-ESI-MS/MS analysis; type: ADME, organism-based
[14] = Half life in C57BL/6 mouse plasma at 100 mg/kg, po measured upto 24 hrs by LC-ESI-MS/MS analysis; type: ADME, organism-based
[15] = Half life in C57BL/6 mouse brain at 30 mg/kg, po measured upto 24 hrs by LC-ESI-MS/MS analysis; type: ADME, organism-based
[16] = Half life in C57BL/6 mouse brain at 100 mg/kg, po measured upto 6 hrs by LC-ESI-MS/MS analysis; type: ADME, organism-based
[17] = Unbound brain-to-plasma concentration ratio in C57BL/6 mouse by LC-MS/MS analysis; type: ADME; conditions: read-out: K(p,uu,brain)
Mus musculus = test: In vivo inhibition of HDAC2 in C57BL/6 mouse assessed as increase in histone H4K12 acetylation in brain at 100 mg/kg, po measured after 4 hrs by immunochemical detection method; type: functional, organism-based
[18] = Lipophilicity, log D of the compound at pH 7.4; type: physicochemical; conditions: buffer
Histone deacetylase 2 [19] = biological target: T1, Histone deacetylase 2; test: Inhibition of full length recombinant C-terminal FLAG-tagged human HDAC2 expressed in baculovirus-infected Sf9 cells at 2 mM measured for 2 hrs by fluorescence-based assay relative to control

T1 sequence (Q92769 whole entry): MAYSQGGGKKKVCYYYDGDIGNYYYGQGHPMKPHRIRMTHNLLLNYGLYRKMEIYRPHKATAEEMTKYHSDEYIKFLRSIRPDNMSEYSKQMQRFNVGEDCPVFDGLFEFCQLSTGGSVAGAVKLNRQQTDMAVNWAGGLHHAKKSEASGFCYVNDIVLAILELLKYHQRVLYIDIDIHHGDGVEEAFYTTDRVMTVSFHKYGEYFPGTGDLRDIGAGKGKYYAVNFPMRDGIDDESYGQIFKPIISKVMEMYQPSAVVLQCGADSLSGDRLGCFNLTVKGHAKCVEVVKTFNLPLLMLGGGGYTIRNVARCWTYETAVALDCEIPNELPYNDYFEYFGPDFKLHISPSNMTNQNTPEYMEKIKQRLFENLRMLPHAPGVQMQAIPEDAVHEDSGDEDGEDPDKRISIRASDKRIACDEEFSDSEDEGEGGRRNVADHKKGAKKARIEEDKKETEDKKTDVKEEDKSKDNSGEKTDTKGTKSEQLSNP

In the case of CN(C)C(=O)C(N)Cc1ccc(F)cc1 (centres undefined), the inhibition (Histone deacetylase 2 [1]) is reported as 58% and the IC50 (Histone deacetylase 2 [2]) is reported as 1000 µM.

For O=C([C@H]1C[C@@H](c2cccc(Cl)c2)CN1)N1CCN(c2nccc3ccsc23)CC1, the inhibition (SK-N-SH [3]) was “Active”, the IC50 (Histone deacetylase 2 [2]) was 0.5 µM and the inhibition (SK-N-SH [4]) was “Active”. It also gave a Cmax [5] of 2400 ng/mL, a Cmax [6] of 4000 ng/mL and a Cmax [7] of 2300 ng/g. It also gave a Cmax [8] of 3400 ng/g, an AUC(0-inf) [9] of 4200 ng·h/mL and an AUC(0-inf) [10] of 18500 ng·h/mL. It also gave an AUC [11] of 4 µg·h/g, an AUC [12] of 13.1 µg·h/g and a half-life [13] of 1.1 h. The half-life [14] was 3.5 h, the half-life [15] was 0.9 h and the half-life [16] was 2.7 h. For the same compound, the Kp uu [17] was 0.36, the inhibition (Mus musculus) was “Active” and the logD [18] was 3.9.

O=C([C@H]1C[C@@H](c2ccccc2)CN1)N1Cc2ccccc2C1 showed an IC50 (Histone deacetylase 2 [2]) of 6.4 µM.

O=C1CCC(c2ccc(Cl)cc2)N1 (centres undefined) showed an inhibition (Histone deacetylase 2 [1]) of 9%.

Compound N[C@H](CCc1ccccc1)C(=O)N1CCCC1 has an IC50 (Histone deacetylase 2 [2]) of 110 µM.

O=C1CCC(c2ccc([C@H]3CN[C@@H](C(=O)N4Cc5ccccc5C4)C3)cc2)N1 (stereo in doubt; 10) showed an IC50 (Histone deacetylase 2 [2]) of 26 µM.

For O=C(O)Cc1ccccc1, the inhibition (Histone deacetylase 2 [1]) was 40%.

With O=C([C@H]1C[C@@H](c2ccccc2)CN1)N1CCCC1 the IC50 (Histone deacetylase 2 [2]) was 26 µM.

In the case of N#Cc1cccnc1N1CCN(C(=O)[C@H]2C[C@@H](c3ccccc3)CN2)CC1, the IC50 (Histone deacetylase 2 [2]) is reported as 1.8 µM.

O=C([C@H]1C[C@@H](c2ccccc2)CN1)N1CCN(c2nccc3ccsc23)CC1 gave an IC50 (Histone deacetylase 2 [2]) of 1.7 µM.

With N#Cc1cccnc1N1CCN(C(=O)[C@H]2C[C@@H](c3cccc(Cl)c3)CN2)CC1 the IC50 (Histone deacetylase 2 [2]) was 0.85 µM.

With CN(C)C(=O)[C@H](N)CCc1ccccc1 the inhibition (Histone deacetylase 2 [19]) was 64%.

For Cc1cc(O)cc(=O)o1, the inhibition (Histone deacetylase 2 [1]) was 4%.

For O=C([C@H]1C[C@@H](c2cccc(Cl)c2)CN1)N1Cc2ccccc2C1, the IC50 (Histone deacetylase 2 [2]) was 2.8 µM.

With O=C([C@H]1C[C@@H](c2ccc(Cl)cc2)CN1)N1Cc2ccccc2C1 the IC50 (Histone deacetylase 2 [2]) was 4 µM.

O=C1CCC(c2ccc([C@H]3CN[C@@H](C(=O)N4Cc5ccccc5C4)C3)cc2)N1 (stereo in doubt; 11) gave an IC50 (Histone deacetylase 2 [2]) of 18 µM.
